Reference: patent US11896574B2, “Treatment of metabolic disorders in feline animals” (Boehringer Ingelheim Vetmedica GmbH, priority 2013, dated 2024)

Assay: Physicochemical properties of the crystalline complex

Structure (SMILES): N#Cc1ccc([C@@H]2O[C@H](CO)[C@@H](O)[C@H](O)[C@H]2O)cc1Cc1ccc(C2CC2)cc1.O=C(O)[C@@H]1CCCN1 [crystalline complex]
- tendency to absorb moisture: does not show a high tendency to absorb moisture
- physical and chemical stability (various environmental conditions and during production of a medicament): high physical and chemical stability
